The values below come from patent US20250064945A1 (Arvinas Operations, Inc., priority 2021, published 2025).

Molecules are shown by their SMILES. Where a name gives a salt, the structure may show the parent alone. Some results are limits rather than exact numbers.

The target in this assay is T1, BRM (Homo sapiens, UniProt P51531).
T1 construct: In-Cell Western Screen of BRM Degradation in SW1573 Cells; endogenous in cells; host or cells: SW1573 cells
Kind of assay: Western blot / In-Cell Western screen of BRM degradation in SW1573 cells. The conditions noted are these: overnight (18-20 hours) treatment; for Dmax: read-out: Dmax (%) (% degraded). The class given is cell-based. Here is the method:
Western Blot Screen of BRM Degradation in SW1573 Cells
To assess BRM degradation (Dmax and DC50) cells were seeded at 8000/well in 96-well black/clear-bottom plates in 180 μL DMEM growth media (containing 1% pen-strep, 1% HEPES and 10% FBS) per well. Plates were incubated overnight to allow adhesion. The next morning cells were treated by adding 20 μL of 10× target compound concentration (1% DMSO) to appropriate wells and returned to incubator for overnight (18-20 hours). The final DMSO concentration was 0.1%.
For lysing, adherent cells were washed once with 100 μL of DPBS. Cells were lysed in 40 μL of 1× RIPA+HALT protease inhibitor on ice for 10 minutes and frozen until use at −80° C. Thawed lysates were cleaned by filtration in 1.2 µm filter plates, or alternatively, were spun clean at 2300 g at 4° C. for 30 minutes.
For blotting, for each Western sample 30 μL of lysate was added to 10 μL of 4×LDS sample buffer, then denatured at 95° C. for 5 minutes in the thermal cycler and placed on ice. Samples were loaded on 4-15% Tris/Glycine gels and run for 25 minutes at 250 constant volts in 1×Tris/Glycine buffer with 4 μL of ladder and 12 μL of each sample loaded for each blot. Protein was transferred from gels to NC with BioRad Turbo dry-transfer unit with the Turbo/midi default program. All blots were rinsed with ddH2O and blocked for 1 hour at room temperature in 5% BSA in TBST (0.1%) on rocker. Blots were exposed to primary antibody in 5% BSA in TBST (0.1%) overnight at 4° C. on rocker (1:1000 for BRM (Cell Signaling Tech. cat #11966) and 1:2000 for alpha-tubulin (Cell Signaling Tech. cat #3873), a control protein. Blot was washed with TBST (0.1%) three times for 5 minutes on rocker at room temperature. Secondary antibody was added, and blots were incubated on a room temperature rocker for 1 hour with 1:18,000 anti-rabbit-HRP and/or anti-mouse-HRP in 5% BSA in TBST (0.1%). Blots were washed three times in TBST (0.1%) for 5 minutes at room temperature on the rocker. Signal was developed with Femto Maximum Sensitivity substrate for 4 minutes and blots read on ChemiDoc™.
In-Cell Western Screen of BRM Degradation in SW1573 Cells
To assess BRM degradation (Dmax and DC50), cells were seeded at 8000/well in 96-well black/clear-bottom plates in 180 μL DMEM growth media (containing 1% pen-strep, 1% HEPES and 10% FBS) per well. Plates were incubated overnight to allow adhesion. The next morning cells were treated by adding 20 μL of 10× compound (1% DMSO) to appropriate wells and returned to incubator for overnight (18-20 hours). The final DMSO concentration was 0.1%.
For processing, the plates were removed from incubator, the media was removed, and immediately 200 μL of cold (4° C.) DPBS was added to all wells. DPBS was then removed, and 50 μL of 4% paraformaldehyde (PFA) in DPBS (4° C.) was added to all wells, and the plates were incubated at room temperature for 20 minutes. PFA was then removed, and 200 μL of TBS-T containing 0.5% Triton X-100 was added to all wells, and the plates were incubated at room temperature for 30 minutes. TBS-T containing 0.5% Triton X-100 was then removed, and 50 μL of Li-Cor blocking solution was added, and the plates were incubated at room temperature for a minimum of one hour. The blocking solution was removed, and 50 μL of Li-Cor blocking solution containing primary antibody cocktail was added (1:1000 for BRM (Cell Signaling Tech. cat #11966) and 1:2000 for alpha-tubulin (Sigma cat #T6074), a control protein. Plates were then placed in cold room until the next day.
The next day plates were washed three times with TBS-T, 200 μL per well. Fifty […] of secondary antibody cocktail in LI-COR blocking solution (anti-rabbit_800 nm and anti-mouse_680 nm) was added to all wells (diluted 1:5000). The plates were incubated at room temperature for at least one hour while protected from light. The plates were washed twice with TBS-T, 200 μL per well. […]
In general terms: Immunoblotting shows a protein as a band on a membrane.

T1 sequence (P51531 whole entry): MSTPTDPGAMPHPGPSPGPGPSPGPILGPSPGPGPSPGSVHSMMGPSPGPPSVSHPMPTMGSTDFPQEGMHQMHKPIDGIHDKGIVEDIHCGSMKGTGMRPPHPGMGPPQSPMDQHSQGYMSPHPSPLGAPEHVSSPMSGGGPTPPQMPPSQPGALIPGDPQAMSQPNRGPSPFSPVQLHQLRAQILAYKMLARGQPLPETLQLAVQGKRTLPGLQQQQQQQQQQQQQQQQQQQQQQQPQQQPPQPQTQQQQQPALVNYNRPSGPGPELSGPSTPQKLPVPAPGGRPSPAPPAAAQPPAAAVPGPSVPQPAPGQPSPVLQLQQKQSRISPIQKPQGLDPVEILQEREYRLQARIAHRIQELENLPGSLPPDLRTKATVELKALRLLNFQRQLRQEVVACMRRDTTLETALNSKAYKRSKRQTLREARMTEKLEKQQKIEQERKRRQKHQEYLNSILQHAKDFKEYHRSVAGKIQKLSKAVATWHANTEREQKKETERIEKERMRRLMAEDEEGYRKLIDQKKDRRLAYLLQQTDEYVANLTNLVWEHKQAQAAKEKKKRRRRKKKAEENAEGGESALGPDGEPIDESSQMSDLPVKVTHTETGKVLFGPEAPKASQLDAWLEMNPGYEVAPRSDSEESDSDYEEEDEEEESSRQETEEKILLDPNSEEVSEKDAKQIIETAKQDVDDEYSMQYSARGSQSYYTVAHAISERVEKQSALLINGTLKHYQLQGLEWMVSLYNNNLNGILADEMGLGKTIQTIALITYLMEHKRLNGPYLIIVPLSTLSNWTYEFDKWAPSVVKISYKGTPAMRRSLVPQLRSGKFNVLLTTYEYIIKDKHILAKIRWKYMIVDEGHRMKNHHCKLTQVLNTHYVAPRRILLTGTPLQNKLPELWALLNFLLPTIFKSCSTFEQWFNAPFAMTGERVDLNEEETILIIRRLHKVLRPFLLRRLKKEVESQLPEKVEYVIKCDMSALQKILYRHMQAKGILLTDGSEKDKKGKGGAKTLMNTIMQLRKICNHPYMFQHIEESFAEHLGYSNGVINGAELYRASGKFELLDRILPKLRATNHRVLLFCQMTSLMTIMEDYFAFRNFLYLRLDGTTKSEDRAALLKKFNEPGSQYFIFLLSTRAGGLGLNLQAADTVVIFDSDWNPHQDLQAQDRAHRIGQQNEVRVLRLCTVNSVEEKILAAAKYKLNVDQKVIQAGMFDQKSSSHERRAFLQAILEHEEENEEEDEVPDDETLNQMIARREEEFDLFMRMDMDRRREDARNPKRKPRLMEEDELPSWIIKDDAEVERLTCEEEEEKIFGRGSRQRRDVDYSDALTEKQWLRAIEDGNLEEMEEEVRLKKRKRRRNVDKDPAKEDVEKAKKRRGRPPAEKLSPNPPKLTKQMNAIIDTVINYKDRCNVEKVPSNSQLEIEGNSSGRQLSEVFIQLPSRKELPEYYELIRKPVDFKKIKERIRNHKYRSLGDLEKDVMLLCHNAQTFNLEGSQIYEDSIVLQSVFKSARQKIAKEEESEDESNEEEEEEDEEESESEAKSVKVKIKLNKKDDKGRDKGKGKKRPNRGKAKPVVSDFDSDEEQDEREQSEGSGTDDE

A word on the DC50: it is the concentration at which degradation of the target reaches its halfway point. A high value points to a less potent degrader. For `Cc1ncsc1-c1ccc([C@H](C)NC(=O)[C@@H]2C[C@@H](O)CN2C(=O)[C@@H](c2cc(N3CCC(CN4CCC(O[C@H]5C[C@H](n6ccc(CN7C8CCC7CN(c7cc(-c9ccccc9O)nnc7N)C8)n6)C5)CC4)CC3)no2)C(C)C)cc1` [Compound 14, (2S,4R)-4-hydroxy-N-[(1S)-1-[4-(4-methyl-1,3-thiazol-5-yl)phenyl]ethyl]-1-[(2R)-3-methyl-2-{3-[4-({4-[(1r,3r)-3-[3-({3-[3-amino-6-(2-hydroxyphenyl)pyridazin-4-yl]-3,8-diazabicyclo[3.2.1]octan-8-yl}methyl)-1H-pyrazol-1-yl]cyclobutoxy]piperidin-1-yl}methyl)piperidin-1-yl]-1,2-oxazol-5-yl}butanoyl]pyrrolidine-2-carboxamide], the DC50 is not below 30 nM.

What is called Dmax is the largest share of the target that was removed. On to `Cc1ncsc1-c1ccc([C@H](C)NC(=O)[C@@H]2C[C@@H](O)CN2C(=O)[C@@H](c2cc(N3CCC(CN4CCC(O[C@H]5C[C@H](N6CCN(C[C@@H]7[C@H]8CN(c9cc(-c%10ccccc%10O)nnc9N)C[C@@H]78)CC6)C5)CC4)CC3)no2)C(C)C)cc1` [Compound 9, (2S,4R)-4-hydroxy-N-[(1S)-1-[4-(4-methyl-1,3-thiazol-5-yl)phenyl]ethyl]-1-[(2R)-3-methyl-2-{3-[4-({4-[(1r,3r)-3-(4-{[(1R,5S,6S)-3-[3-amino-6-(2-hydroxyphenyl)pyridazin-4-yl]-3-azabicyclo[3.1.0]hexan-6-yl]methyl}piperazin-1-yl)cyclobutoxy]piperidin-1-yl}methyl)piperidin-1-yl]-1,2-oxazol-5-yl}butanoyl]pyrrolidine-2-carboxamide], for which the DC50 was less than 2.5 nM and the Dmax is more than 75%.

Regarding `Cc1ncsc1-c1ccc([C@H](C)NC(=O)[C@@H]2C[C@@H](O)CN2C(=O)[C@@H](c2cc(N3CCC(CN4CCC(O[C@H]5C[C@H](N6CCC(CN7CCN(c8cc(-c9ccccc9O)nnc8N)CC78COC8)CC6)C5)CC4)CC3)no2)C(C)C)cc1` [Compound 13, (2S,4R)-4-hydroxy-N-[(1S)-1-[4-(4-methyl-1,3-thiazol-5-yl)phenyl]ethyl]-1-[(2R)-3-methyl-2-{3-[4-({4-[(1r,3r)-3-[4-({8-[3-amino-6-(2-hydroxyphenyl)pyridazin-4-yl]-2-oxa-5,8-diazaspiro[3.5]nonan-5-yl}methyl)piperidin-1-yl]cyclobutoxy]piperidin-1-yl}methyl)piperidin-1-yl]-1,2-oxazol-5-yl}butanoyl]pyrrolidine-2-carboxamide], the DC50 was less than 2.5 nM and the Dmax is more than 75%.

On to `Cc1ncsc1-c1ccc([C@H](C)NC(=O)[C@@H]2C[C@@H](O)CN2C(=O)[C@@H](c2cc(N3CCC(CN4CCC(O[C@H]5C[C@@H](N6CCC(CC#Cc7cn8cc(-c9ccccc9O)nc8nc7N)CC6)C5)CC4)CC3)no2)C(C)C)cc1` [Compound 36, formate], for which the DC50 is less than 2.5 nM and the Dmax was more than 75%.

As to `Cc1ncsc1-c1ccc([C@H](C)NC(=O)[C@@H]2C[C@@H](O)CN2C(=O)[C@@H](c2cc(N3CCC(CN4CCC(O[C@H]5C[C@H](n6cnc(CN7C8CCC7CN(c7cc(-c9ccccc9O)nnc7N)C8)c6)C5)CC4)CC3)no2)C(C)C)cc1` [Compound 3, (2S,4R)-4-hydroxy-N-[(1S)-1-[4-(4-methyl-1,3-thiazol-5-yl)phenyl]ethyl]-1-[(2R)-3-methyl-2-{3-[4-({4-[(1r,3r)-3-[4-({3-[3-amino-6-(2-hydroxyphenyl)pyridazin-4-yl]-3,8-diazabicyclo[3.2.1]octan-8-yl}methyl)-1H-imidazol-1-yl]cyclobutoxy]piperidin-1-yl}methyl)piperidin-1-yl]-1,2-oxazol-5-yl}butanoyl]pyrrolidine-2-carboxamide], the DC50 is less than 2.5 nM and the Dmax is more than 75%.

In the case of `Cc1ncsc1-c1ccc([C@H](C)NC(=O)[C@@H]2C[C@@H](O)CN2C(=O)[C@@H](c2cc(N3CCC(CN4CCC(O[C@H]5C[C@H](n6cc(CN7C8CCC7CN(c7cc(-c9ccccc9O)nnc7N)C8)cn6)C5)CC4)CC3)no2)C(C)C)cc1` [Compound 12, (2S,4R)-4-hydroxy-N-[(1S)-1-[4-(4-methyl-1,3-thiazol-5-yl)phenyl]ethyl]-1-[(2R)-3-methyl-2-{3-[4-({4-[(1r,3r)-3-[4-({3-[3-amino-6-(2-hydroxyphenyl)pyridazin-4-yl]-3,8-diazabicyclo[3.2.1]octan-8-yl}methyl)-1H-pyrazol-1-yl]cyclobutoxy]piperidin-1-yl}methyl)piperidin-1-yl]-1,2-oxazol-5-yl}butanoyl]pyrrolidine-2-carboxamide], the DC50 lay in the range of 2.5 to 10 nM and the Dmax is more than 75%.

With `CC(C)[C@@H](C(=O)N1C[C@H](O)C[C@H]1C(=O)N[C@@H](C)c1ccc(C#N)cc1)c1cc(OCCN2CCC(O[C@H]3C[C@@H](Oc4cc(N5CCN(c6cc(-c7ccccc7O)nnc6N)CC56COC6)ccn4)C3)CC2)no1` [Compound 24, (2S,4R)-N-[(1S)-1-(4-cyanophenyl)ethyl]-4-hydroxy-1-[(2R)-3-methyl-2-[3-(2-{4-[(1r,3r)-3-[(4-{8-[3-amino-6-(2-hydroxyphenyl)pyridazin-4-yl]-2-oxa-5,8-diazaspiro[3.5]nonan-5-yl}pyridin-2-yl)oxy]cyclobutoxy]piperidin-1-yl}ethoxy)-1,2-oxazol-5-yl]butanoyl]pyrrolidine-2-carboxamide], the DC50 is less than 2.5 nM and the Dmax is more than 75%.

For the compound `Cc1ncsc1-c1ccc([C@H](C)NC(=O)[C@@H]2C[C@@H](O)CN2C(=O)[C@@H](c2cc(N3CCC(CN4CCC5(CC4)CC(N4CCO[C@@H](CN6CCOC7(CCN(c8cc(-c9ccccc9O)nnc8N)CC7)C6)C4)C5)CC3)no2)C(C)C)cc1` [Compound 26, (2S,4R)-1-[(2R)-2-{3-[4-({2-[(2S)-2-({9-[3-amino-6-(2-hydroxyphenyl)pyridazin-4-yl]-1-oxa-4,9-diazaspiro[5.5]undecan-4-yl}methyl)morpholin-4-yl]-7-azaspiro[3.5]nonan-7-yl}methyl)piperidin-1-yl]-1,2-oxazol-5-yl}-3-methylbutanoyl]-4-hydroxy-N-[(1S)-1-[4-(4-methyl-1,3-thiazol-5-yl)phenyl]ethyl]pyrrolidine-2-carboxamide], the DC50 is less than 2.5 nM and the Dmax is more than 75%.

In the case of `Cc1ncsc1-c1ccc([C@H](C)NC(=O)[C@@H]2C[C@@H](O)CN2C(=O)[C@@H](c2cc(N3CCC(CN4CCC(OCCn5cnc(-c6cn7cc(-c8ccccc8O)nc7nc6N)c5)CC4)CC3)no2)C(C)C)cc1` [Compound 38, (2S,4R)-1-[(2R)-2-[3-(4-{[4-(2-{4-[7-amino-2-(2-hydroxyphenyl)imidazo[1,2-a]pyrimidin-6-yl]-1H-imidazol-1-yl}ethoxy)piperidin-1-yl]methyl}piperidin-1-yl)-1,2-oxazol-5-yl]-3-methylbutanoyl]-4-hydroxy-N-[(1S)-1-[4-(4-methyl-1,3-thiazol-5-yl)phenyl]ethyl]pyrrolidine-2-carboxamide], the DC50 fell in the range of 2.5 to 10 nM and the Dmax was more than 75%.
